Results published in patent publication US20240400554A1, “MONOACYLGLYCEROL LIPASE (MAGL) INHIBITORS FOR THE TREATMENT OF PAIN AND RELATED MEDICAL DISORDERS” (Humanwell Pharmaceutical US, Inc., priority 2023, published 2024).

Tests used:
[1] = biological target: T1, human recombinant MAGL (monoacylglycerol lipase) (Homo sapiens, UniProt Q99685); experiment: In vitro MAGL enzyme inhibition assay (Cayman Monoacylglycerol Lipase Inhibitor Screening Assay, 4-nitrophenylacetate hydrolysis); format: biochemical; conditions: 4-nitrophenylacetate substrate, 15 min preincubation, absorbance 405-415 nm
T1 construct: purchased Cayman Chemical Item No. 705192
T1 sequence (Q99685 1-303): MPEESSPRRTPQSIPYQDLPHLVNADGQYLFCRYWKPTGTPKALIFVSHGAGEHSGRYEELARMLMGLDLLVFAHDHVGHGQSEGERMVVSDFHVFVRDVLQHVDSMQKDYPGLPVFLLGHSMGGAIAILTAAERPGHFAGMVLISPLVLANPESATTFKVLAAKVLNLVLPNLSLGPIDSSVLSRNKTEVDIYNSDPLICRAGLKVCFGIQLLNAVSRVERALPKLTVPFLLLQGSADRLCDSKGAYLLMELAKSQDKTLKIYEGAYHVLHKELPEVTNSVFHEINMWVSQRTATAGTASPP
Description: Monoacylglycerol Lipase Inhibitor Screening Assay provides a convenient method for screening human MAGL inhibitors.
Dilute 3 ml of MAGL Assay Buffer (10×) concentrate with 27 ml of ultrapure water. This final 1× Assay Buffer (10 mM Tris-HCl, pH 7.2, containing 1 mM EDTA) should be used in the assay and for the dilution of MAGL enzyme, substrate, and MAGL inhibitor. The 1× Assay Buffer is stable for at least six months if stored at −20° C.
The vial contains 0.5 ml of 17 mM ethanolic solution of 4-nitrophenylacetate. Mix 150 μL of this solution with 450 μl of 1× Assay Buffer prior to testing. This is enough substrate to assay 50 wells. Dilute additional substrate if using the entire plate.
This vial contains 100 μl of a solution of human recombinant MAGL (monoacylglycerol lipase). The thawed enzyme should be stored on ice. Dilute 30 μl of enzyme with 570 μl of 1×MAGL Assay Buffer. This is enough enzyme to assay 50 wells. Dilute additional enzyme if using the entire plate. The diluted enzyme is stable for four hours on ice.
This vial contains 20 nmol of inhibitor. Resuspend in 125 μl of DMSO, then add 125 μl of 1× Assay Buffer and vortex to make an 80 μM stock.
1). 100% Initial Activity Wells—add 150 μl of 1× Assay Buffer, 10 μl of MAGL enzyme, and 10 μl of solvent (same solvent used to dissolve the inhibitor) to three wells.
2). Background Wells—add 160 μl of 1× Assay Buffer and 10 μl of solvent (same solvent used to dissolve the inhibitor) to three wells.
3). Inhibitor/Positive Control Wells—add 150 μl of 1× Assay Buffer, 10 μl of MAGL enzyme, and 10 μl of inhibitor* or positive control inhibitor to the inhibitor wells.
4). Mix the contents of the wells by pipetting gently up and down and incubate for 15 minutes at room temperature. The incubation time for different inhibitors may vary and will need to be optimized by the user.
5). Initiate the reactions by adding 10 μl of MAGL Substrate to all the wells being used. Carefully shake the 96-well plate for 10 seconds to mix and cover with the plate cover. Incubate for ten minutes at room temperature.
6). […] (Tecan Spark 10M Multimode Plate Reader)
1). Determine the average absorbance of each sample.
2). Subtract the average absorbance of the background wells from the average absorbance of the 100% initial activity and the inhibitor wells.
3). Determine the percent inhibition or percent activity for each inhibitor using one of the following equations: […]

[2] = system: 2% formalin model in SD rats; experiment: Formalin-induced pain model; format: in vivo; conditions: 3 mg/kg p.o.
Description: A diluted formalin solution is injected subcutaneously into the hind paw of rats using a microsyringe, creating a continuous noxious stimulus that induces spontaneous pain behaviors in the animals. The experiment can record the number of lifts and licks of the rat's foot through an autonomous movement analyzer to assess the degree of pain. This experiment uses a 2% formalin model in SD rats and tests the analgesic activity of compounds by oral administration. After injecting 2% formalin, the number of movements (lifts and licks of the injected foot) from 0-60 min after injecting the formalin solution is recorded and analyzed.
The Maximum Possible Effect (MPE %) is calculated as a percentage:
Note: (1) MPE % for each group is calculated with sham group MPE=100% and vehicle group MPE=0% as standards. (2) Movement counts of the sham group are subtracted to exclude the impact of background noise on the experiment. (2) “Sham” represents the average value of the sham group; “Vehicle-Sham” represents the average value of the vehicle group minus the sham group.
Results are presented as mean values with standard error. Data from each group are analyzed and graphed using GraphPad Prism 8 software. Statistical analysis is conducted using one-way ANOVA to determine statistical differences between groups, with t-tests used for comparisons between two groups. A p-value <0.05 is considered statistically significant.

- IC50 [1]: 18.8 nM
SMILES: O=C(OC(CO)C(F)(F)F)N1CCC(c2nn3c(c2C2CC2)CCc2cc(F)ccc2-3)CC1 (stereo not drawn) [Compound 40, 1,1,1-trifluoro-3-hydroxypropan-2-yl 4-(3-cyclopropyl-7-fluoro-4,5-dihydropyrazolo[1,5-a]quinolin-2-yl)piperidine-1-carboxylate]
- Experimental Results (analgesic activity in the formalin model) [2]: effective
- inhibition in vivo at 3 mg/kg ([2]; Rattus norvegicus, po, 1 h, movements (lifts and licks) 0-60 min after formalin, read-out: MPE % (Maximum Possible Effect)): 41%
